Measurements published in patent US10767160B2, “Methods for modulating production profiles of recombinant proteins” (ARES TRADING S.A., priority 2015, dated 2020).
Where two headings read alike, the source gives them in different places.

How the values were obtained:
[1] = tested on: CHO-S cells expressing IgG1 mAb1; assay: Fed-batch culture in Spin Tubes, host cells expressing mAb1; format: cell-based, Chinese Hamster
Protocol: (§1) Assays were performed with 2 CHO cell lines: • CHO-S cells expressing IgG1 mAb1, herein “Cells mAb1” or “mAb1 cells”. “mAb1” is a fully human monoclonal antibody directed against a soluble protein. Its isoelectric point (pI) is about 8.20-8.30. • CHO-K1 cells expressing IgG1 mAb2, herein “Cells mAb2” or “mAb2 cells”. “mAb2” is a humanised monoclonal antibody directed against a receptor found on the cell membrane. Its isoelectric point (pI) is about 9.30. 2) Cell Expansion
(§2) Cells expressing mAb2 were inoculated at 0.2×10^6 cells per millilitre (mL), whereas cells expressing mAb1 were inoculated at 0.3×10^6 cells per mL.
(§3) All assays were performed in fed-batch culture. The host cells were cultured in fed-batch system either in microplates (“Deep well plate”) or in Spin Tubes®, and incubated at 36.5° C., 90% relative humidity, 5% CO2 and 320 rpm shaking during 14 days.
(§4) Viable cell density and viability were measured with the Guava easyCyte® flow cytometer or with the ViCell.
(§5) Antibody titres were measured with the fortêBIO Octet® or with Biacore C®.
(§6) Glycosylation profiles were established by capillary gel electrophoresis with laser-induced fluorescence (CGE-LIF). Dosages of aggregates and fragments were performed respectively via Size Exclusion High Performance Liquid Chromatography (SE-HPLC) and SDS-capillary gel electrophoresis.

[2] = tested on: CHO-S cells expressing IgG1 mAb1; assay: Fed-batch culture in microplates, host cells expressing mAb1; format: cell-based, Chinese Hamster
Protocol: as §1, §2, §3, §4, §5, §6

[3] = tested on: CHO-K1 cells expressing IgG1 mAb2; format: cell-based, Chinese Hamster
Protocol: as §1, §2, §3, §4, §5, §6

[4] = tested on: recombinant CHO cells; conditions: perfusion batch culture, within 6 days of treatment; cited from earlier work
[5] = tested on: recombinant CHO cells; conditions: batch culture, end of production run, after 8 days of culture; cited from earlier work
[6] = about 167 μM or about 417 μM, microplates
[7] = up to 25 μM and 41.7 μM, microplates
[8] = similar concentrations (8.5 μM), Spin tubes
[9] = about 0.4 μM to about 17 μM, microplates
[10] = about 83 μM to about 833 μM, microplates
[11] = about 4.3 and/or about 8.5 μM, Spin Tubes

Nc1c(S(=O)(=O)O)cc(Nc2ccc(Nc3nc(Cl)nc(Nc4ccccc4S(=O)(=O)O)n3)c(S(=O)(=O)O)c2)c2c1C(=O)c1ccccc1C2=O [Cibacron Blue 3GA]
specific productivity ([1]; 8.5 μM, Spin tubes): significantly increased
titre increase at the end of the culture ([1]; 8.5 μM, Spin tubes): 1.25 factor
maximum density of viable cells ([1]; 8.5 μM, days 6-9, Spin tubes): increased
viability compared to control ([1]; 8.5 μM, starting on day 7, Spin tubes): decrease of viability
titre ([2]; about 83 μM, microplates): still significantly increased
cell viability [2, 6]: decreased
titre [2, 6]: impact on the titre was observed
quantity of secreted recombinant protein (titre) compared to control ([2]; about 8.3 to about 41.7 μM, microplates): 1.5 fold
titre [2, 7]: increased significantly
viable cell density [2, 7]: increased significantly
productivity of antibodies mAb2 [3, 8]: increased
titre multiplied at the end of cell culture [3, 8]: 1.2

O=S(=O)(O)c1cc(Nc2nc(Cl)nc(Nc3ccc(Nc4nc(Cl)nc(Nc5cc(S(=O)(=O)O)cc6cc(S(=O)(=O)O)c(N=Nc7ccccc7S(=O)(=O)O)c(O)c56)n4)cc3)n2)c2c(O)c(N=Nc3ccccc3S(=O)(=O)O)c(S(=O)(=O)O)cc2c1 [Reactive Red 120]
titre increase ([1]; 8.6 μM, Spin Tubes): 1.2 factor
cell viability compared to control ([1]; about 4.3 and/or about 8.5 μM, after day 10, Spin Tubes): only slightly affected
viable cell density ([1]; about 4.3 and/or about 8.5 μM, days 5-9, Spin Tubes): increased
viable cell density increase compared to control ([2]; 17.3 μM, day 7, microplates): 1.5 factor
titre increase compared to control ([2]; 17.3 μM, day 14, microplates): 1.3 factor
maximum titre relative to control cells ([2]; 83 μM, microplates): 1.2 fold
cell viability [2, 9]: (slightly) reduced
titre [2, 9]: increased significantly
viable cell density [2, 9]: increased significantly
toxicity limit ([2]; about 17 μM, microplates): did not seem to have been reached
cell viability [2, 10]: decrease significantly
titre [2, 10]: remained superior or equal to what was obtained with control cells
viable cell density [2, 10]: decrease significantly
toxicity ([2]; above 83 μM, microplates): becomes toxic
specific productivity [3, 11]: increase
titre [3, 11]: increase
viability compared to control ([3]; until the end of the culture, Spin Tubes): maintained

CCCC(=O)[O-].[Na+] [sodium butyrate]
cell viability [4]: 15%
cell viability [5]: less than 45%
